Patent US20100184799A1, “OXADIAZOLE BETA CARBOLINE DERIVATIVES AS ANTIDIABETIC COMPOUNDS” (priority 2009, published 2010)
Each block holds one molecule with its values, some of them ahead of it.

Tests used:
[1] = biological target: T1, SSTR3 (Homo sapiens, UniProt P32745); assay: SSTR3 receptor-ligand binding assay, (3-125I-Tyr11)-SRIF-14 radioligand, CHO-K1 cell membranes; design: expressed in transfected cells; membranes used; conditions: cloned human SSTR3, CHO-K1 membranes, 0.1 nM radioligand
Method: The receptor-ligand binding assays of all 5 subtype of SSTRs were performed with membranes isolated from Chinese hamster ovary (CHO)—K1 cells stably expressing the cloned human somatostatin receptors in 96-well format as previous reported.
The stable cell lines for SSTR1-SSTR5 were developed by stably transfecting with DNA for all five SSTRs using Lipofectamine. […] The assay buffer consisted of 50 mM TrisHCl (pH 7.8) with 1 mM EGTA, 5 mM MgCl2, leupeptin (10 μg/mL), pepstatin (10 μg/mL), bacitracin (200 μg/mL), and aprotinin (0.5 μg/mL). CHO—K1 cell membranes, radiolabeled somatostatin, and unlabeled test compounds were resuspended or diluted in this assay buffer. Unlabeled test compounds were examined over a range of concentrations from 0.01 nM to 10,000 nM.

[2] = biological target: T1, SSTR3; assay: SSTR3 functional antagonist assay: cAMP production with FSK + SS-14 in SSTR3 stable CHO cells; format: cell-based, human or mouse; design: […]; conditions: […] FSK + 100 nM SS-14
Method: The effects of compounds that bind to human and murine SSTR3 with various affinities on the functional activity of the receptor were assessed by measuring cAMP production in the presence of Forskolin (FSK) along or FSK plus SS-14 in SSTR3 expressing CHO cells. FSK acts to induce cAMP production in these cells by activating adenylate cyclases, whereas SS-14 suppresses cAMP production in the SSTR3 stable cells by binding to SSTR3 and the subsequent inhibition of adenylate cyclases via an alpha subunit of GTP-binding protein (Gαi).
The amount of cAMP produced during the incubation was also quantified with the Lance cAMP assay. […] The % Inhibition of each compound was calculated using the following formula:
% Inhibition=[1−(unknown cAMP/FSK+SS-14 cAMP)]×100

T1 sequence (P32745 whole entry): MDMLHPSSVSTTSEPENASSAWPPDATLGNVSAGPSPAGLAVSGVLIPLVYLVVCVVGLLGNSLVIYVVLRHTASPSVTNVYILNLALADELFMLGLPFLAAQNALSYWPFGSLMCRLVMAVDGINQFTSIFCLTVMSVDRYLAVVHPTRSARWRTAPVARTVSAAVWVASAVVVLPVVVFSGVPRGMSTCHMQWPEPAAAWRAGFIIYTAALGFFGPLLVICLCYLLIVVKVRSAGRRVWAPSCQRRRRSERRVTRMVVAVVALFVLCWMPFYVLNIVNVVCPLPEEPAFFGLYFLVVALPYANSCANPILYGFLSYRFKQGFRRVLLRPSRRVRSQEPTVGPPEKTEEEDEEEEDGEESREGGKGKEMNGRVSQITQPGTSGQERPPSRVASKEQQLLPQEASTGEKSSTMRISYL

Structure (SMILES): Oc1nnc(C2(c3ccccc3)N[C@@H](c3nc(-c4ccc(F)cc4)c[nH]3)Cc3c2[nH]c2ccccc32)o1 (mixture of isomers) [Example 10]
Ki [1]: 3.3 nM
EC50 [2]: 10.7 nM

Structure (SMILES): N#Cc1ccc(C2(c3nnc(O)o3)N[C@@H](c3nc(-c4ccc(F)cc4)c[nH]3)Cc3c2[nH]c2ccccc32)cc1 (mixture of isomers) [Example 13]
Ki [1]: 9.2 nM
EC50 [2]: 18.9 nM

Structure (SMILES): CCn1cc(C2(c3nnc(O)o3)NC(c3nc(-c4ccc(F)cc4)c[nH]3)Cc3c2[nH]c2ccccc32)cn1 (mixture of isomers) [Example 35]
EC50 [2]: 1.8 nM

Structure (SMILES): Cc1nc(C2(c3nnc(O)o3)NC(c3nc(-c4ccc(F)cc4)c[nH]3)Cc3c2[nH]c2ccccc32)no1 (mixture of isomers) [Example 38]
EC50 [2]: 24.6 nM

Structure (SMILES): Cc1nc(C2(c3nnc(N)o3)NC(c3nc(-c4ccc(F)cc4)c[nH]3)Cc3c2[nH]c2ccccc32)no1 (mixture of isomers) [Example 56]
EC50 [2]: 17.8 nM

Structure (SMILES): CSc1nnc(C2(c3cnn(C)c3)NC(c3nc(-c4ccc(F)cn4)c[nH]3)Cc3c2[nH]c2ccccc32)o1 (mixture of isomers) [Example 57]
EC50 [2]: 0.8 nM

Structure (SMILES): Cn1nc(C2(c3ccccc3)N[C@@H](c3nc(-c4ccc(F)cc4)c[nH]3)Cc3c2[nH]c2ccccc32)oc1=O (single isomer, unassigned) [Example 1]
Ki [1]: 0.8 nM
EC50 [2]: 3.8 nM

Structure (SMILES): Cn1nc(C2(c3ccccc3)N[C@@H](c3nc(-c4ccc(F)cc4)c[nH]3)Cc3c2[nH]c2ccccc32)oc1=O (single isomer, unassigned) [Example 2]
Ki [1]: 31.4 nM
EC50 [2]: 29.1 nM

Structure (SMILES): Cn1nc(C2(c3ccc(C#N)cc3)NC(c3nc(-c4ccc(F)cc4)c[nH]3)Cc3c2[nH]c2ccccc32)oc1=O (single isomer, unassigned) [Example 14]
Ki [1]: 1.2 nM
EC50 [2]: 5.4 nM

Structure (SMILES): Cn1nc(C2(c3ccc(C#N)cc3)NC(c3nc(-c4ccc(F)cc4)c[nH]3)Cc3c2[nH]c2ccccc32)oc1=O (single isomer, unassigned) [Example 15]
Ki [1]: 2 nM
EC50 [2]: 30.5 nM

Structure (SMILES): CCn1nc(C2(c3ccc(C#N)cc3)N[C@@H](c3nc(-c4ccc(F)cn4)c[nH]3)Cc3c2[nH]c2ccccc32)oc1=O (single isomer, unassigned) [Example 16]
EC50 [2]: 11 nM

Structure (SMILES): CCn1nc(C2(c3ccc(C#N)cc3)N[C@@H](c3nc(-c4ccc(F)cn4)c[nH]3)Cc3c2[nH]c2ccccc32)oc1=O (single isomer, unassigned) [Example 17]
EC50 [2]: 25.6 nM

Structure (SMILES): Cn1cc(C2(c3nnc(O)o3)N[C@@H](c3nc(-c4ccc(F)cc4)c[nH]3)Cc3c2[nH]c2ccccc32)cn1 (single isomer, unassigned) [Example 18]
EC50 [2]: 1.1 nM

Structure (SMILES): Cn1cc(C2(c3nnc(O)o3)N[C@@H](c3nc(-c4ccc(F)cc4)c[nH]3)Cc3c2[nH]c2ccccc32)cn1 (single isomer, unassigned) [Example 19]
EC50 [2]: 47.5 nM

Structure (SMILES): Cn1cc(C2(c3nnc(O)o3)N[C@@H](c3nc(-c4ccc(F)cn4)c[nH]3)Cc3c2[nH]c2ccccc32)cn1 (single isomer, unassigned) [Example 20]
EC50 [2]: 680 nM

Structure (SMILES): Cn1cc(C2(c3nn(C)c(=O)o3)N[C@@H](c3nc(-c4ccc(F)cc4)c[nH]3)Cc3c2[nH]c2ccccc32)cn1 (single isomer, unassigned) [Example 22]
EC50 [2]: 6.1 nM

Structure (SMILES): CCOC(=O)Cn1nc(C2(c3cnn(CC)c3)N[C@@H](c3nc(-c4ccc(F)cn4)c[nH]3)Cc3c2[nH]c2ccccc32)oc1=O (single isomer, unassigned) [Example 34]
Ki [1]: 0.9 nM
EC50 [2]: 0.5 nM

Structure (SMILES): Oc1nnc(C2(c3cnn(C4CC4)c3)N[C@@H](c3nc(-c4ccc(F)cn4)c[nH]3)Cc3c2[nH]c2ccccc32)o1 (single isomer, unassigned) [Example 37]
EC50 [2]: 0.6 nM

Structure (SMILES): COCc1nc(C2(c3nnc(O)o3)N[C@@H](c3nc(-c4ccc(F)cn4)c[nH]3)Cc3c2[nH]c2ccccc32)no1 (single isomer, unassigned) [Example 39]
EC50 [2]: 12.5 nM

Structure (SMILES): Cn1cc(C2(c3nnc(N)o3)N[C@@H](c3nc(-c4ccc(F)cc4)c[nH]3)Cc3c2[nH]c2ccccc32)cn1 (single isomer, unassigned) [Example 52]
Ki [1]: 13.3 nM
EC50 [2]: 8 nM

Structure (SMILES): Cn1cc(C2(c3nnc(N)o3)N[C@@H](c3nc(-c4ccc(F)cc4)c[nH]3)Cc3c2[nH]c2ccccc32)cn1 (single isomer, unassigned) [Example 53]
EC50 [2]: 0.2 nM

Structure (SMILES): CSc1nnc(C2(c3cnn(C)c3)N[C@@H](c3nc(-c4ccc(F)cc4)c[nH]3)Cc3c2[nH]c2ccccc32)o1 (some centres unmarked) [Example 58]
Ki [1]: 0.9 nM
EC50 [2]: 1.9 nM

Second part, the molecule after the results:

Ki [1]: 1.1 nM
EC50 [2]: 1.9 nM
Structure (SMILES): CCn1cc(C2(c3nn(C)c(=O)o3)N[C@@H](c3nc(-c4ccc(F)cc4)c[nH]3)Cc3c2[nH]c2ccccc32)cn1 (mixture of isomers) [Example 36]

Ki [1]: 23.7 nM
EC50 [2]: 18 nM
Structure (SMILES): CCn1nc(C2(c3noc(C)n3)N[C@@H](c3nc(-c4ccc(F)cn4)c[nH]3)Cc3c2[nH]c2ccccc32)oc1=O (single isomer, unassigned) [Example 8]

Ki [1]: 4.2 nM
EC50 [2]: 2.6 nM
Structure (SMILES): CCn1nc(C2(c3noc(C)n3)N[C@@H](c3nc(-c4ccc(F)cn4)c[nH]3)Cc3c2[nH]c2ccccc32)oc1=O (single isomer, unassigned) [Example 9]

Ki [1]: 52.2 nM
EC50 [2]: 74.1 nM
Structure (SMILES): Cn1nc(C2(c3ccccc3)NC(c3nc(-c4ccc(F)cn4)c[nH]3)Cc3c2[nH]c2ccccc32)oc1=O (single isomer, unassigned) [Example 11]

Ki [1]: 1.2 nM
EC50 [2]: 5.9 nM
Structure (SMILES): Cn1nc(C2(c3ccccc3)NC(c3nc(-c4ccc(F)cn4)c[nH]3)Cc3c2[nH]c2ccccc32)oc1=O (single isomer, unassigned) [Example 12]

Ki [1]: 1.2 nM
EC50 [2]: 2.3 nM
Structure (SMILES): Cn1cc(C2(c3nn(C)c(=O)o3)N[C@@H](c3nc(-c4ccc(F)cc4)c[nH]3)Cc3c2[nH]c2ccccc32)cn1 (single isomer, unassigned) [Example 23]

EC50 [2]: 3 nM
Structure (SMILES): CCn1nc(C2(c3noc(COC)n3)N[C@@H](c3nc(-c4ccc(F)cn4)c[nH]3)Cc3c2[nH]c2ccccc32)oc1=O (single isomer, unassigned) [Example 40]

EC50 [2]: 19 nM
Structure (SMILES): CCn1nc(C2(c3noc(COC)n3)N[C@@H](c3nc(-c4ccc(F)cn4)c[nH]3)Cc3c2[nH]c2ccccc32)oc1=O (single isomer, unassigned) [Example 41]

EC50 [2]: 3.2 nM
Structure (SMILES): COCc1nc(C2(c3nn(C)c(=O)o3)N[C@@H](c3nc(-c4ccc(F)cn4)c[nH]3)Cc3c2[nH]c2ccccc32)no1 (single isomer, unassigned) [Example 42]

EC50 [2]: 1070 nM
Structure (SMILES): Cn1nnc(C2(c3nnc(O)o3)N[C@@H](c3nc(-c4ccc(F)cn4)c[nH]3)Cc3c2[nH]c2ccccc32)n1 (single isomer, unassigned) [Example 43]

EC50 [2]: 2000 nM
Structure (SMILES): CCn1nnc(C2(c3nnc(O)o3)N[C@@H](c3nc(-c4ccc(F)cn4)c[nH]3)Cc3c2[nH]c2ccccc32)n1 (single isomer, unassigned) [Example 44]

EC50 [2]: 32.6 nM
Structure (SMILES): CCn1nnc(C2(c3nnc(O)o3)N[C@@H](c3nc(-c4ccc(F)cn4)c[nH]3)Cc3c2[nH]c2ccccc32)n1 (single isomer, unassigned) [Example 45]

EC50 [2]: 21.4 nM
Structure (SMILES): CCn1nnc(C2(c3nn(C)c(=O)o3)N[C@@H](c3nc(-c4ccc(F)cn4)c[nH]3)Cc3c2[nH]c2ccccc32)n1 (single isomer, unassigned) [Example 46]

EC50 [2]: 74.4 nM
Structure (SMILES): CCn1nnc(C2(c3nn(C)c(=O)o3)N[C@@H](c3nc(-c4ccc(F)cn4)c[nH]3)Cc3c2[nH]c2ccccc32)n1 (single isomer, unassigned) [Example 47]

EC50 [2]: 63.4 nM
Structure (SMILES): CCn1nc(C2(c3nnn(C)n3)N[C@@H](c3nc(-c4ccc(F)cn4)c[nH]3)Cc3c2[nH]c2ccccc32)oc1=O (single isomer, unassigned) [Example 48]

EC50 [2]: 0.8 nM
Structure (SMILES): Cn1nc(C2(c3cnn(C4CC4)c3)N[C@@H](c3nc(-c4ccc(F)cn4)c[nH]3)Cc3c2[nH]c2ccccc32)oc1=O (single isomer, unassigned) [Example 59]
